14 molecules from patent US20250114345A1, “COMPOUNDS AND COMPOSITIONS AS CBP/P300 DEGRADERS AND USES THEREOF” (Oncopia Therapeutics, Inc. d/b/a/ SK Life Science Labs, priority 2023, published 2025) can be followed below.

The Dmax is the largest share of the target that was removed. Read a low Dmax as shallow degradation. What is called DC50 is the concentration at which degradation of the target reaches its halfway point. A low value points to a more potent degrader.

In this test the target is T1, p300 (Homo sapiens, UniProt Q09472).
T1 construct: host or cells: A549 P300 HiBit cells
T1 sequence (Q09472 whole entry): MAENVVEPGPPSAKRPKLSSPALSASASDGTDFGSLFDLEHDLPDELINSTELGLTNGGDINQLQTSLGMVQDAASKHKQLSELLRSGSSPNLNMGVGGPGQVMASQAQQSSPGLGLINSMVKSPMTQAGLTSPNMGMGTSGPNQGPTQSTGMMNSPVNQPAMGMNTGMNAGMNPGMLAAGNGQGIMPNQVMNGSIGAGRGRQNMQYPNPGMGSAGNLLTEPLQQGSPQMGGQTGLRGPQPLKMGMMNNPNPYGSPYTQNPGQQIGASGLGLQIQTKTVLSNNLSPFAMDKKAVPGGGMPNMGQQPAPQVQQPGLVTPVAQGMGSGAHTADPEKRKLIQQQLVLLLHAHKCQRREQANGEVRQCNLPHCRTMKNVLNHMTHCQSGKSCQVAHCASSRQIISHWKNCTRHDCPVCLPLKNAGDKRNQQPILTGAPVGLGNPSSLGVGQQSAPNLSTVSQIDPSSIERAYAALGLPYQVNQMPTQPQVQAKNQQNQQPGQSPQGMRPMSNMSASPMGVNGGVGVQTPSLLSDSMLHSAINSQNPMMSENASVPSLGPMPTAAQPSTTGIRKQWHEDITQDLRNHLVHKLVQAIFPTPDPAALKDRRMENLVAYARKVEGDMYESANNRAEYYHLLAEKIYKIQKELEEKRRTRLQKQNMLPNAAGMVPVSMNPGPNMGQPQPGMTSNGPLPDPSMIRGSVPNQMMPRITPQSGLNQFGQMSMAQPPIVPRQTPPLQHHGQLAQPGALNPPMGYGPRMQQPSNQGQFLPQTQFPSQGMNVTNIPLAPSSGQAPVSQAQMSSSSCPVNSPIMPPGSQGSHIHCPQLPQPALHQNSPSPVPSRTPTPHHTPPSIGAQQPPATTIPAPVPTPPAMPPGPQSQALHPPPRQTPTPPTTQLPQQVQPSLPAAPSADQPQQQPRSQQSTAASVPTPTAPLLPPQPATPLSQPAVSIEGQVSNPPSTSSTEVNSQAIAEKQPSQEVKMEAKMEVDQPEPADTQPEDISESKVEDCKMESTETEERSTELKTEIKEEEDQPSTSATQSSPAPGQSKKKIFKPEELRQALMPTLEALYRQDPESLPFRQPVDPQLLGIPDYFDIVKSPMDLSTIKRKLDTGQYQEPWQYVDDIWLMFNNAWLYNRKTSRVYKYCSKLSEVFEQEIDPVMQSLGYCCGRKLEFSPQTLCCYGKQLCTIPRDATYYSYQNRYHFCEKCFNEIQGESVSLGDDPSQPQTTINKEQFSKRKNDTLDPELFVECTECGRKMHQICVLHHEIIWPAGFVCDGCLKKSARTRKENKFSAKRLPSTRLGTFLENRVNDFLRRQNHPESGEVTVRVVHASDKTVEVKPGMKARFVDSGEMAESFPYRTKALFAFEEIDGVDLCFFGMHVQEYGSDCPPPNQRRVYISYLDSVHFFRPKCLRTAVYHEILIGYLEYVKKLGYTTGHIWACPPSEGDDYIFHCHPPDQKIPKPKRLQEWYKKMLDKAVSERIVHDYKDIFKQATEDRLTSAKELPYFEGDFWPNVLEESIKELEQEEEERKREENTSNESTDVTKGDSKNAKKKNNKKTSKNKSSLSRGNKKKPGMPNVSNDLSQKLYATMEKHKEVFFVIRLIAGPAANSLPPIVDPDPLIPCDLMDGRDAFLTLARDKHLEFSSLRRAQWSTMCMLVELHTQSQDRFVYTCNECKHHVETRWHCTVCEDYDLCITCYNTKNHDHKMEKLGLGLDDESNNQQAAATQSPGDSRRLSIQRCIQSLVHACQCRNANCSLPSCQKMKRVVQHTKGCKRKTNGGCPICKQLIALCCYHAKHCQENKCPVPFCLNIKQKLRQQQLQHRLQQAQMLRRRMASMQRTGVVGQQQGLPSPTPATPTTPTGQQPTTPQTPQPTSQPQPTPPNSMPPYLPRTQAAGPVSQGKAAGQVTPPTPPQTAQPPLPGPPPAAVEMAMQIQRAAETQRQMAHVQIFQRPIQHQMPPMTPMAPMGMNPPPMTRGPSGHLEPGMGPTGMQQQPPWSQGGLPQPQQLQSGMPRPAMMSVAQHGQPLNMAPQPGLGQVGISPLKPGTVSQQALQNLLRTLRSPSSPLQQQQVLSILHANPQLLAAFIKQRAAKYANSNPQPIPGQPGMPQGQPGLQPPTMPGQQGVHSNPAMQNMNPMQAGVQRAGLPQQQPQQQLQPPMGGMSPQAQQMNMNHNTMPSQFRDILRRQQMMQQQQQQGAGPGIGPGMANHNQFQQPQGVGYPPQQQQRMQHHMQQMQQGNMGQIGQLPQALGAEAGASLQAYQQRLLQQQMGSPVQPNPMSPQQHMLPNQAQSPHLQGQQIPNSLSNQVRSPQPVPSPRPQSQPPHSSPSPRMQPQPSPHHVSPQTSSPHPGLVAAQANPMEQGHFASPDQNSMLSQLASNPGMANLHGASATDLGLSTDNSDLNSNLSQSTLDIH
As to the kind of experiment: P300 degradation, HiBit technology in A549 P300 HiBit cells (2 h). In kind it is cell-based. To be noted: 2 hrs post treatment; for Dmax: A549, A549 P300 HiBit cells; for DC50: A549 P300 HiBit cells. The essentials:
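Degradation potency and Dmax came from HiBiT luminescence in tagged A549 cells treated with serially diluted compound (DMSO stocks at 10 mM) after overnight equilibration in F-12K with 10% heat-inactivated FBS.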

`Cc1cc(-c2ncc3c(n2)OCCN3c2cnc3c(c2)n(C)c(=O)n3C)cnc1C(=O)NCC#Cc1ccc2occ(C3CCC(=O)NC3=O)c2c1` (stereo not shown) [Example A126, 5-(5-(1,3-dimethyl-2-oxo-2,3-dihydro-1H-imidazo[4,5-b]pyridin-6-yl)-6,7-dihydro-5H-pyrimido[4,5-b] [1,4]oxazin-2-yl)-N-(3-(3-(2,6-dioxo-piperidin-3-yl)benzofuran-5-yl)prop-2-yn-1-yl)-3-methylpicolinamide] gave a Dmax of 20 to 39% and a half-maximal degradation concentration (DC50) of 1 to 9.9 nM.
`Cc1cc2c(N3CCN(C)c4nc(-c5ccc(C(=O)NCC#Cc6cc7c(C8CCC(=O)NC8=O)cccc7o6)nc5)ncc43)cccc2n(C)c1=O` (stereo not shown) [Example B65, 5-(5-(1,3-dimethyl-2-oxo-1,2-dihydroquinolin-5-yl)-8-methyl-5,6,7,8-tetrahydropteridin-2-yl)-N-(3-(4-(2,6-dioxopiperidin-3-yl)benzofuran-2-yl)prop-2-yn-1-yl)picolinamide] showed a maximal degradation (Dmax) above 80% and a DC50 of 1 to 9.9 nM.
In the case of `CC(C)c1cc(-c2cccc3cc(-c4ccc(C(=O)NCC#Cc5ccc6c(c5)nnn6C5CCC(=O)NC5=O)nc4)ncc23)cc2c1n(C)c(=O)n2C` (stereo not shown) [Example A17, N-(3-(1-(2,6-Dioxopiperidin-3-yl)-1H-benzo[d][1,2,3]triazol-5-yl)prop-2-yn-1-yl)-5-(8-(7-isopropyl-1,3-dimethyl-2-oxo-2,3-dihydro-1H-benzo[d]imidazol-5-yl)isoquinolin-3-yl)picolinamide], the Dmax is below 20% and the 50% degradation concentration (DC50) was above 1000 nM.
As for `Cn1c(=O)n(C)c2cc(N3CCOc4nc(-c5ccc(C(=O)NCC#Cc6ccn7ncc(C8CCC(=O)NC8=O)c7c6)nc5)ncc43)ccc21` (stereo not shown) [Example A246, 5-(5-(1,3-dimethyl-2-oxo-2,3-dihydro-1H-benzo[d]imidazol-5-yl)-6,7-dihydro-5H-pyrimido[4,5-b][1,4]oxazin-2-yl)-N-(3-(3-(2,6-dioxopiperidin-3-yl)pyrazolo[1,5-a]pyridin-5-yl)prop-2-yn-1-yl)picolinamide], the greatest degradation seen (Dmax) lay in the range of 40 to 59% and the 50% degradation concentration (DC50) was in the range of 1 to 9.9 nM.
Take `CC(C)c1cc(-c2cccc3cc(-c4ccc(C(=O)NCC#Cc5ccc6cnn(C7CCC(=O)NC7=O)c6n5)nc4)ncc23)cc2c1n(C)c(=O)n2C` (stereo not shown) [Example A12, N-(3-(1-(2,6-Dioxopiperidin-3-yl)-1H-pyrazolo[3,4-b]pyridin-6-yl)prop-2-yn-1-yl)-5-(8-(7-isopropyl-1,3-dimethyl-2-oxo-2,3-dihydro-1H-benzo[d]imidazol-5-yl)isoquinolin-3-yl)picolinamide]: the Dmax was 20 to 39% and the half-maximal degradation concentration (DC50) fell in the range of 10 to 99 nM.
`Cn1c(=O)n(C)c2ncc(-c3cccc4cc(-c5ccc(C(=O)NCC#Cc6ccc7occ(C8CCC(=O)NC8=O)c7c6)nc5)ncc34)cc21` (stereo not shown) [Example A157, 5-(8-(1,3-dimethyl-2-oxo-2,3-dihydro-1H-imidazo[4,5-b]pyridin-6-yl)isoquinolin-3-yl)-N-(3-(3-(2,6-dioxopiperidin-3-yl)benzofuran-5-yl)prop-2-yn-1-yl)picolinamide] gave a Dmax above 80% and a DC50 of 1 to 9.9 nM.
In the case of `Cc1cc2c(N3CCCc4cc(-c5ccc(C(=O)NCC#Cc6ccc7occ(C8CCC(=O)NC8=O)c7c6)nc5)ccc43)cc(C3CCOCC3)cc2n(C)c1=O` (stereo not shown) [Example B140, 5-(1′,3′-dimethyl-2′-oxo-7′-(tetrahydro-2H-pyran-4-yl)-1′,2′,3,4-tetrahydro-2H-[1,5′-biquinolin]-6-yl)-N-(3-(3-(2,6-dioxopiperidin-3-yl)benzofuran-5-yl)prop-2-yn-1-yl) picolinamide], the Dmax is 60 to 79% and the half-maximal degradation concentration (DC50) lay within 1 to 9.9 nM.
For `CCN(c1cnc(-c2cnc(C(=O)NCC#Cc3ccc4occ(C5CCC(=O)NC5=O)c4c3)c(C)c2)c(F)c1)c1cc(C(C)C)c2c(c1)n(C)c(=O)n2C` (stereo not shown) [Example A137, N-(3-(3-(2,6-dioxo-piperidin-3-yl)benzofuran-5-yl)prop-2-yn-1-yl)-5-(ethyl(7-isopropyl-1,3-dimethyl-2-oxo-2,3-dihydro-1H-benzo[d]imidazol-5-yl)amino)-3-fluoro-5′-methyl-[2,3′-bipyridine]-6′-carboxamide] the same measures were above 80% and 1 to 9.9 nM.
The corresponding values for `Cc1cc(-c2cc(F)c(Nc3cc(C4CCOCC4)c4c(c3)n(C)c(=O)n4C)cc2C(F)F)cnc1C(=O)NCC#Cc1cc2c(C3CCC(=O)NC3=O)cccc2o1` (stereo not shown) [Example A257, 5-(2-(difluoromethyl)-4-((1,3-dimethyl-2-oxo-7-(tetrahydro-2H-pyran-4-yl)-2,3-dihydro-1H-benzo [d]imidazol-5-yl)amino)-5-fluoro-phenyl)-N-(3-(4-(2,6-dioxopiperidin-3-yl)benzofuran-2-yl)prop-2-yn-1-yl)-3-methylpicolinamide] are 60 to 79% and 1 to 9.9 nM.
For `CC(C)c1cc(N(C)c2cnc(-c3ccc(C(=O)NCC#Cc4ccc5occ(C6CCC(=O)NC6=O)c5c4)nc3)cn2)cc2c1n(C)c(=O)n2C` (stereo not shown) [Example A59, N-(3-(3-(2,6-dioxopiperidin-3-yl)benzofuran-5-yl)prop-2-yn-1-yl)-5-(5-((7-isopropyl-1,3-dimethyl-2-oxo-2,3-dihydro-1H-benzo [d]imidazol-5-yl)(methyl)amino)pyrazin-2-yl)picolinamide] the same measures were above 80% and 1 to 9.9 nM.
`Cc1cc2c(N3CCCc4nc(-c5ccc(C(=O)NCC#Cc6cc7c(C8CCC(=O)NC8=O)cccc7o6)nc5)ncc43)cc(Cl)cc2n(C)c1=O` (stereo not shown) [Example B126, 5-(5-(7-chloro-1,3-dimethyl-2-oxo-1,2-dihydroquinolin-5-yl)-5,6,7,8-tetrahydropyrido [3,2-d]pyrimidin-2-yl)-N-(3-(4-(2,6-dioxo-piperidin-3-yl)benzofuran-2-yl)prop-2-yn-1-yl)picolinamide] came in with a Dmax above 80% and a DC50 of 1 to 9.9 nM.
As to `CC(C)c1cc(N2CCOc3cc(-c4ccc(C(=O)NCC#Cc5ccc6occ(C7CCC(=O)NC7=O)c6c5)nc4)c(F)cc32)cc2c1n(C)c(=O)n2C` (stereo not shown) [Example A110, N-(3-(3-(2,6-dioxo-piperidin-3-yl)benzofuran-5-yl)prop-2-yn-1-yl)-5-(6-fluoro-4-(7-isopropyl-1,3-dimethyl-2-oxo-2,3-dihydro-1H-benzo[d]imidazol-5-yl)-3,4-dihydro-2H-benzo[b][1,4]oxazin-7-yl)picolinamide], the Dmax is above 80% and the DC50 fell in the range of 1 to 9.9 nM.
As for `CC(C)c1cc(-c2cccc3cc(-c4ccc(C(=O)NCC#Cc5cc(C#N)c6occ(C7CCC(=O)NC7=O)c6c5)nc4)ncc23)cc2c1n(C)c(=O)n2C` (stereo not shown) [Example A233, N-(3-(7-cyano-3-(2,6-dioxopiperidin-3-yl)benzofuran-5-yl)prop-2-yn-1-yl)-5-(8-(7-isopropyl-1,3-dimethyl-2-oxo-2,3-dihydro-1H-benzo [d]imidazol-5-yl)isoquinolin-3-yl)picolinamide], the Dmax fell in the range of 40 to 59% and the 50% degradation concentration (DC50) is 10 to 99 nM.
In the case of `Cn1c(=O)n(C)c2c(N3CCC3)nc(-c3cccc4cc(-c5ccc(C(=O)NCC#Cc6cc7c(C8CCC(=O)NC8=O)cccc7o6)nc5)ncc34)cc21` (stereo not shown) [Example A205, 5-(8-(4-(azetidin-1-yl)-1,3-dimethyl-2-oxo-2,3-dihydro-1H-imidazo[4,5-c]pyridin-6-yl)iso-quinolin-3-yl)-N-(3-(4-(2,6-dioxopiperidin-3-yl)benzofuran-2-yl)prop-2-yn-1-yl)picolinamide], the Dmax was above 80% and the 50% degradation concentration (DC50) was in the range of 1 to 9.9 nM.
